Reference: patent US11648289B2, “Antibacterial method” (priority 2016, dated 2023)
No end group written: not given here.

Test system: E. faecalis LMGT3358 resistant mutants
Outline: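 Read-out is turbidity: MIC taken as the minimal bacteriocin concentration that halves growth relative to an untreated control culture. Strains were cultured in BHI at 30° C without agitation.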

Sequence: MLAKIKAMIKKFPNPYTLAAKLTTYEINWYKQQYGRYPWERPVA [EntEJ97]
- resistance of lower resistance (LR) colonies compared to the WT (five LR colonies of E. faecalis): 16-32 times
- resistance of highly resistant (HR) colonies compared to the WT (seven HR colonies of E. faecalis): at least 500 times
